In patent US7919579B2, “Imaging and therapeutic targeting of prostate and bladder tissues” (The Board of Regents of the University of Texas System, priority 2006, dated 2011):
No end group written: not given here. *: point of attachment. FITC = O=C1OC2(c3ccc(O)cc3Oc3cc(O)ccc32)c2ccc(NC(=S)*)cc21

Legend:
[1] = system: R11 uptake by bladder cancer cells; assay: inhibitor and GAG competition of R11 uptake in bladder cancer cells; assay type: cell-based, human; conditions: for competition of R11 uptake by GAGs: various concentrations of GAG with 5 μM R11, 30 min
Description: FIGS. 10A-C—Determination of primary interaction molecule for R11 uptake in several bladder cancer cells. Human bladder cancer cells were pre-treated with various inhibitors (FIG. 10A: EIPA; FIG. 10B: Toxin B) 2 h and then incubated with 5 μM CPPs for 30 min before harvesting cell for determining cellular uptake. For competition assay, various concentrations of GAG's and 5 μM R9, R11, or R13 were added into cells for 30 min before harvesting cell for determining cellular uptake (FIG. 10C). Relative uptake was determined based on control (=1).
In order to define R11 as a bladder-specific molecular probe, it is critical to unveil the mechanism of R11 uptake. […] Furthermore, they examined a variety of glycosaminoglycans (GAGs) commonly detected in bladder wall (De Klerk, 1985) for their abilities to block the R11 uptake.

LNCaP = assay: cell growth assay (MTT), serum or DHT-induced proliferation; assay type: cell-based; conditions: 5 μM peptide, 5% FBS or 10 nM DHT, MTT 4 days
Description: (§1) FIGS. 3A-B—Inhibitory effect of R11PPL on serum and androgen-induced cell proliferation of PCa. LNCaP (FIG. 3A) or C4-2 cells (FIG. 3B) were incubated with 5 μM R11PPL, R11AAL or without peptide 3 hours before adding serum or DHT (10 nM) and relative cell number was determined by MTT assay. All the experiments were carried out in quadruplicates and repeated at least twice. Each column represents mean±SD in triplicate.
(§2) Cell growth assay and cell cycle analysis. Cells were plated in 96-well plate at a density of 10^3 per well in T-medium supplemented with 5% charcoal-stripped FBS for overnight. Cells were incubated with or without indicated peptides (5 μM) for 3 hours in the presence of T-medium supplemented with 0.5% charcoal-stripped FBS. Subsequently, cells were replaced with T-medium containing either 5% FBS or 10 nM dihydrotestosterone (DHT). The peptides were changed every 2 days. The cell proliferation was determined 4 days after the initial peptide treatment by using 3-(4,5-dimethylthiazol-2-yl)-2,5-diphenyltetrazolium bromide (MTT) assay (Roche, Indianapolis, Ind.).

C4-2 cells = assay: as above; assay type: cell-based; conditions: 5 μM peptide, 5% FBS or 10 nM DHT, MTT 4 days
Description: as §1, §2

[2] = system: PCa cells (LNCaP, C4-2, LAPC4 and PC3); assay: uptake of FITC-tagged CPPs by PCa cells (fluorometer); assay type: cell-based; conditions: four PCa cells; 30 minutes
Description: Cell culture and peptide incubation. All PCa cell lines (LNCaP, C4-2, LAPC4 and PC3) were maintained as described previously (Zhou et al., 2005). To determine the peptide uptake, 1×10^5 cells per well were plated in a 12-well plate. Next day, the culture medium was replaced with RPMI medium supplemented with 0.5% FBS (Invitrogen, Carlsbad, Calif.) containing different concentrations fluorescence (FITC)-tagged peptides and incubation was carried out at the indicated time. For determining cellular location of peptide, cells were cultured overnight in slide chamber at a density of 25×10^4/cm^2. The FITC tagged peptides were incubated for 30 minutes in the presence of RPMI medium supplemented with 0.5% of FBS prior to fluorescence microscopy.
Fluorescence intensity determination and Fluorescence microscopy.
Screening of the most efficient CPP uptake by prostate cancer (PCa) cell lines. To deliver small peptide into target cells, CPP was employed as a delivery system. Five different CPPs were synthesized including TAT (amino acid 49-57), Penetratin (Antennapedia 43-58) (PENE), KALA peptide, poly-arginine (R11) and poly-lysine (K11). All the CPPs were incorporated with a FITC-labeled glycine at their N-terminal ends. […] To determine the uptake quantitatively, fluorometer was used to measure the intensity of each CPP per cell basis. To rule out the possible artifacts such as CPP only associated with the cell surface and the pH variation from different organelles, cells were trypsinized and washed extensively with PBS, and a buffer with neutral pH was used in this experiment. […] In general, the uptake efficiency of five different CPPs tested can be considered as R11>>KALA≧TAT≧PENE≧K11 among four PCa cells.

[3] = system: MAP kinase (Erk2) activation; assay: Western blot of phosphorylated Erk1/2 in C4-2 cells; assay type: cell-based
Description: (§3) FIGS. 4A-B—Mechanism of action of R11PPL in PCa cells. To determine the function of R11PPL (SEQ ID NO:11) on interaction of Grb2 with SOS, the C4-2 cell lysates were collected after treated with EGF (FIG. 4A). The GST fusion protein with SH3 domain of Grb2 was used for the pull-down assay. The same amount of immobilized GST-Grb2 (SH3) protein (IB:αGST) was incubated with equal amount of cell lysate in addition of no peptide, the increasing amount of control R11AAL (SEQ ID NO:10) or R11PPL (SEQ ID NO:11) peptide as indicated. The binding of SOS was analyzed with Western Blot using SOS1 antibody. DOC-2/DAB2 expression plasmid transfection was used as a positive control. To examine the effect of R11PPL on MAP kinase activity (FIG. 4B), C4-2 cells were incubated with 5 μM R11PPL, R11AAL or R11 (SEQ ID NO:6) peptide 3 hours before adding EGF (10 ng/ml) (top panel) or 5% FBS (bottom panel). Cell lysates were subjected to western blot analysis probed with phosphorylated Erk1 and 2 antibody (αpErk1/2) or total Erk2 antibody (αErk2) used as a loading control. Each experiment has been repeated twice; this graph represents the typical result.
Western blot analysis. Cells were plated in 6-well plates (2×10^5 per well) with T medium containing 5% FBS. […] The protein intensity was detected using an enhanced chemiluminescence detection kit (Amersham, Piscataway, N.J.). […]

[4] = system: interaction of Grb2 with SOS; assay: in vitro pull down assay, GST-Grb2 (SH3) binding of SOS; conditions: C4-2 cell lysate after EGF; peptide 10, 30, 100 μM
Description: as §3
In vitro pull down assay. […] The increasing concentrations of peptide (10, 30, 100 μM) for R11PPL or R11AAL were also added during the incubation. […]

Molecule: CCN(c1nc(N)c(C(=O)NC(=N)N)nc1Cl)C(C)C [EIPA]
- effect of inhibitor on R11 uptake ([1]; pre-treated 2 h, then 5 μM CPPs 30 min): effectively diminish R11 uptake

Molecule: ^FITC-G- RRRRRRRRRRR -GG-FQLRQAALVASRKGE [R11AAL]
- serum or DHT-induced cell proliferation (LNCaP): did not exhibit any effect
- serum or DHT-induced cell proliferation (C4-2 cells): did not exhibit any effect
- uptake of R11, R11AAL and R11PPL compared [2]: very similar

Molecule: ^FITC-G-KLALKLALKALKAALKLA ({FITC}-GKLALKLALKALKAALKLA) [KALA, KALA peptide, FITC-labeled]
- uptake efficiency among five CPPs (rank) [2]: R11>>KALA≧TAT≧PENE≧K11

Molecule: ^FITC-G-RKKRRQRRR (N-terminal FITC-Gly) [TAT, CPP derived from HIV TAT amino acid 49-57, FITC-labeled]
- uptake efficiency among five CPPs (rank) [2]: R11>>KALA≧TAT≧PENE≧K11

Molecule: ^FITC-G-RRRRRRRRRRR-GGG-FQLRQPPLVPSRKGE ({FITC}-GRRRRRRRRRRRGGGFQLRQPPLVPSRKGE) [R11PPL, FITC-R11 conjugated with PPL (DOC-2/DAB2 PR domain) at C-terminus]
- serum or DHT-induced cell proliferation (LNCaP): suppressed
- serum or DHT-induced cell proliferation (C4-2 cells): suppressed
- serum-induced activation of Erk2 ([3]; 5 μM peptide 3 hours before 5% FBS): suppressed
- EGF induced activation of Erk2 ([3]; 5 μM peptide 3 hours before EGF 10 ng/ml): could suppress
- interaction between Grb2 and SOS [4]: dose-dependent inhibitory effect
- uptake of R11, R11AAL and R11PPL compared [2]: very similar

Molecule: dextran sulfate
- competition of R11 uptake by GAGs [1]: effectively compete the uptake of R11

Molecule: pentosan sulfate
- competition of R11 uptake by GAGs [1]: effectively compete the uptake of R11

Molecule: protamine sulfate
- competition of R11 uptake by GAGs [1]: effectively compete the uptake of R11

B1: DOC-2/DAB2: native protein, expression plasmid transfection used as a positive control in pull-down (protein, UniProt P98082 2-770, looked up)
Disabled homolog 2: SNEVETSATNGQPDQQAAPKAPSKKEKKKGPEKTDEYLLARFKGDGVKYKAKLIGIDDVPDARGDKMSQDSMMKLKGMAAAGRSQGQHKQRIWVNISLSGIKIIDEKTGVIEHEHPVNKISFIARDVTDNRAFGYVCGGEGQHQFFAIKTGQQAEPLVVDLKDLFQVIYNVKKKEEEKKKIEEASKAVENGSEALMILDDQTNKLKSGVDQMDLFGDMSTPPDLNSPTESKDILLVDLNSEIDTNQNSLRENPFLTNGITSCSLPRPTPQASFLPENAFSANLNFFPTPNPDPFRDDPFTQPDQSTPSSFDSLKSPDQKKENSSSSSTPLSNGPLNGDVDYFGQQFDQISNRTGKQEAQAGPWPFSSSQTQPAVRTQNGVSEREQNGFSVKSSPNPFVGSPPKGLSIQNGVKQDLESSVQSSPHDSIAIIPPPQSTKPGRGRRTAKSSANDLLASDIFAPPVSEPSGQASPTGQPTALQPNPLDLFKTSAPAPVGPLVGLGGVTVTLPQAGPWNTASLVFNQSPSMAPGAMMGGQPSGFSQPVIFGTSPAVSGWNQPSPFAASTPPPVPVVWGPSASVAPNAWSTTSPLGNPFQSNIFPAPAVSTQPPSMHSSLLVTPPQPPPRAGPPKDISSDAFTALDPLGDKEIKDVKEMFKDFQLRQPPAVPARKGEQTSSGTLSAFASYFNSKVGIPQENADHDDFDANQLLNKINEPPKPAPRQVSLPVTKSTDNAFENPFFKDSFGSSQASVASSQPVSSEMYRDPFGNPFA
- interaction between Grb2 and SOS [4]: inhibited
